According to the OPERA property sets (Mansouri et al. 2018):

Details: not given

SMILES	boiling point	log10 vapour pressure (mmHg)	melting point	log10 biodegradation half-life (days)	ready biodegradability	log10 Koa	log10 Koc (L/kg)	log10 Henry constant (atm·m³/mol)
C1COC1	47.6 °C	2.51	-97 °C					
CCCCCCCCC	151 °C	0.648	-53.5 °C	0.954	readily biodegradable			
CC(=O)c1cnccn1			77 °C					
CCc1cc(C)cc(O)c1	236 °C	-2.06	51.6 °C					
CN1CCC(CCCC2CCN(C)CC2)CC1			13.7 °C					
O=C(O)CS(=O)(=O)O			85 °C					
CCOCOc1ccc(C(=O)Nc2cccc(Cl)c2Cl)cc1			92.5 °C					
COc1ccc(C(=CC(=O)N2CCOCC2)c2ccc(Cl)cc2)cc1OC		-8.13	148 °C					
Clc1cc2cccc(Cl)c2c(Cl)c1Cl						8.65		
CC(C)CCOCc1ccccc1	237 °C							
N#CC1CCCCC1			11 °C					
Cc1cccc(N)c1N	255 °C	-3.26	63.5 °C					
CC(c1ccc(Cl)cc1)c1ccc(Cl)cc1	320 °C		56 °C					
COc1ccc(NC(=O)N(C)C)cc1Cl			126 °C				1.72	
CCCCNS(=O)(=O)c1ccccc1	314 °C				not readily biodegradable			
C1N2CN3CN1CN(C2)C3		-2.4			readily biodegradable			
C=Cn1c2ccccc2c2ccccc21			65 °C					
O=C1C=CC(=O)N1			94 °C					
CCCOC(=O)c1ccc(N)cc1			75 °C					
CCCCCCCO	176 °C	-0.665	-34 °C		readily biodegradable		1.14	-4.73
Oc1ccccc1-c1nc2ccccc2o1	338 °C		124 °C					
OCCN1CN(CCO)CN(CCO)C1					readily biodegradable			
Cc1cccc(C)c1	139 °C	0.919	-47.8 °C	1	readily biodegradable	3.78	2.25	-2.14
CC(C)(C)c1cc(C(C)(C)C)c(O)c(C(C)(C)C)c1	278 °C	-3.18	131 °C		not readily biodegradable			

SMILES	boiling point	log10 vapour pressure (mmHg)	melting point	log10 biodegradation half-life (days)	ready biodegradability	log10 Koa	log10 Koc (L/kg)	log10 Henry constant (atm·m³/mol)
Cc1ccc(Cl)c([N+](=O)[O-])c1	261 °C		7 °C					
CCCCCC(=O)Nc1ccccc1			95 °C					
O=[N+]([O-])c1ccc(F)c([N+](=O)[O-])c1	296 °C		25.8 °C					
O=C(O)c1c(Cl)c(Cl)c(Cl)c(Cl)c1C(=O)O							3.3	
C#CCOC(=O)[C@@H](C)Oc1ccc(Oc2ncc(Cl)cc2F)cc1		-7.62	59.5 °C					
CC(=O)N(C)c1ccccc1C	260 °C		55.5 °C					
CCCCC(CC)COC(=O)CCC (stereo not given)					readily biodegradable			
CC(C)CO[N+](=O)[O-]	123 °C	0.919						-2.65
Cc1ncc(CO)c(C=O)c1O			165 °C		readily biodegradable			
C=C(C)Cn1c(N)cc(=O)n(C)c1=O			175 °C					
Clc1cc2c(Cl)cc(Cl)c(Cl)c2c(Cl)c1Cl		-6.46				9.67		
OCc1c2ccccc2cc2ccccc12							3.61	
CCC(Cc1c(I)cc(I)c(N)c1I)C(=O)O (stereo not given)			155 °C					
O=S1(=O)CC=CC1			64.5 °C					
CC(C)COC(=O)c1ccccc1C(=O)OCC(C)C	296 °C				not readily biodegradable		3.14	
C[NH+](C)CCC(c1ccc(Cl)cc1)c1ccccn1.O=C([O-])/C=C\C(=O)O (stereo not given)			132 °C					
O=C(O)CCBr			62.5 °C					
C#CC(C)(C)N	79.5 °C		18 °C					
CCC(C)(C)Cl	85.5 °C		-73.5 °C					
CC(O)CCO (stereo not given)	208 °C	-1.7						
CN(C)C(CSS(=O)(=O)c1ccccc1)CSS(=O)(=O)c1ccccc1			83.5 °C					
CN(C)c1cccc2c(S(N)(=O)=O)cccc12			220 °C					
CC(c1ccccc1)(c1ccccc1)c1ccccc1			95 °C					
CC(C)NC(=O)N1CC(=O)N(c2cc(Cl)cc(Cl)c2)C1=O		-8.43	136 °C				2.85	-8.51

SMILES	boiling point	log10 vapour pressure (mmHg)	melting point	log10 biodegradation half-life (days)	ready biodegradability	log10 Koa	log10 Koc (L/kg)	log10 Henry constant (atm·m³/mol)
O=C([O-])Cc1ccccc1Nc1c(Cl)cccc1Cl.[Na+]			284 °C					
FC(I)I	100 °C		-34.5 °C					
Cc1c[nH]c2ccccc12	266 °C	-2.26	97.5 °C					
O=[N+]([O-])c1cc(F)c(F)cc1F	194 °C		-11 °C					
C=Cc1ccccn1	160 °C	0.444			not readily biodegradable			
c1ccc(Nc2ccc3ccccc3c2)cc1	396 °C		108 °C		not readily biodegradable			
CCCCCCCCc1ccccc1Nc1ccccc1CCCCCCCC					not readily biodegradable			
CCC(C)CC	63.2 °C	2.28	-163 °C					
CCCCN	78 °C	1.97	-50 °C		readily biodegradable	3.61	1.88	-4.76
O=C1OC(=O)C2CCCCC12 (stereo not given)					not readily biodegradable			
COP(=S)(OC)Oc1ccc([N+](=O)[O-])c(Cl)c1		-5.4	21 °C					
CCCCC1CCCC1	157 °C	0.602	-108 °C					
CCC(C)(O)C#CC(C)(O)CC (stereo not given)	135 °C							
COC(=O)c1ccccc1Br	252 °C							
CCOC(=O)C=C(C)C(=O)OCC	228 °C							
CCn1cccc1	130 °C							
CC(C)(C)c1nnc(NS(=O)(=O)c2ccccc2)s1			163 °C					
c1ccc2c(c1)Cc1ccccc1N2	347 °C							
C=C1C[C@@]23CC[C@H]4[C@@](C)(CCC[C@@]4(C)C(=O)O[C@@H]4O[C@H](CO)[C@@H](O)[C@H](O)[C@H]4O)[C@@H]2CC[C@]1(O[C@@H]1O[C@H](CO)[C@@H](O)[C@H](O)[C@H]1O[C@@H]1O[C@H](CO)[C@@H](O)[C@H](O)[C@H]1O)C3			198 °C					
c1ccc(CCc2ccccc2)cc1	284 °C	-2.14	52.5 °C		readily biodegradable			
Cc1cc(C2CCCCC2)n(O)c(=O)c1			144 °C					
FCC1CO1 (stereo not given)	85.5 °C							
Nc1ccccc1S	234 °C		26 °C					
CCCSCCC	143 °C	0.81	-102 °C					-2.49

SMILES	boiling point	log10 vapour pressure (mmHg)	melting point	log10 biodegradation half-life (days)	ready biodegradability	log10 Koa	log10 Koc (L/kg)	log10 Henry constant (atm·m³/mol)
O=[N+]([O-])N1CCCCC1	245 °C		-5.5 °C					
CC(C)CCOc1ccc(NC(=S)Nc2ccc(OCCC(C)C)cc2)cc1			146 °C					
CCCCCCCC	126 °C	1.15	-56.8 °C	0.954	readily biodegradable	3.35		
NC(=O)c1cccc(Br)c1			155 °C					
CC[C@]12CCCN3CCc4c(n(c5ccccc45)[C@@](O)(C(=O)OC)C1)[C@@H]32			232 °C					
CC/C(=C(/CC)c1ccc(OC)cc1)c1ccc(OC)cc1			124 °C					
Clc1cc(Cl)c(-c2cccc(Cl)c2Cl)cc1Cl							5.69	-4.13
c1ccc(-c2ccc3ncccc3c2)cc1			110 °C					
Clc1cc(Cl)cc(-c2c(Cl)c(Cl)cc(Cl)c2Cl)c1								-4.54
FC(F)(F)C(Cl)(Cl)C(F)(F)Cl	72 °C		-4.3 °C					
CC(C)C#N	104 °C	1.51	-71.5 °C		readily biodegradable	2.87		
CC(C)c1cccs1	153 °C							
O=[N+]([O-])c1ccc(Sc2ccc([N+](=O)[O-])cc2)cc1			160 °C					
O=C1NCNC1(c1ccccc1)c1ccccc1			183 °C					
Cc1cc(C)cc(CO)c1	220 °C							
NC(N)=O.O=P(O)(O)O			120 °C					
CC1(C)CCCC(O)C1 (stereo not given)	185 °C		11.5 °C					
CC(O)[C@H]1CC[C@H]2[C@@H]3CC[C@@H]4C[C@@H](O)CC[C@]4(C)[C@H]3CC[C@]12C (stereo not given in full)			244 °C					
NS(=O)(=O)c1ccc(SCCO)c(F)c1			110 °C					
COc1ccc(CC=O)cc1	256 °C							
CC(C)OC(=O)OOC(=O)OC(C)C			10 °C					
O=c1cc(-c2ccccc2)oc2ccccc12			100 °C					
NCCNCCN	207 °C		-39 °C		not readily biodegradable			

Same assay, conditions: fish

SMILES	log10 biotransformation half-life (days)	log10 BCF
CCCCCCCCC	0.97	
Cc1cccc(C)c1		1.17
CC(C)(C)c1cc(C(C)(C)C)c(O)c(C(C)(C)C)c1	1.81	4.14
[2H]C([2H])([2H])C([2H])([2H])C([2H])([2H])C([2H])([2H])C([2H])([2H])C([2H])([2H])C([2H])([2H])C([2H])([2H])C([2H])([2H])C([2H])([2H])C([2H])([2H])C([2H])([2H])C([2H])([2H])C([2H])([2H])C([2H])([2H])C([2H])([2H])[2H]	1.47	
CC(C)NC(=O)N1CC(=O)N(c2cc(Cl)cc(Cl)c2)C1=O		2.53
c1ccc(Nc2ccc3ccccc3c2)cc1	-0.41	2.37
COP(=S)(OC)Oc1ccc([N+](=O)[O-])c(Cl)c1	-0.47	1.55
Clc1cc(Cl)c(-c2cccc(Cl)c2Cl)cc1Cl	2.55	
NCCNCCN		0.65
